Values belong to the compound of their own block, whether it stands above or below them.
Tests used:
BaF3 [1] = test: Antitumor activity against mouse BaF3 cells harbouring EML-4-ALK-L1196M mutant allografted in female BALB/c nude mouse assessed as tumor growth inhibition at 20 mg/kg, po administered once daily for 11 days by vernier caliper based analysis relative to control; assay type: functional; details: BaF3, 264 h, time 11 day, read-out: TGI
BaF3 [2] = test: Antiproliferative activity against mouse BaF3 cells harboring EML4-ALK-L1196M mutant assessed as inhibition of cell growth incubated for 72 hrs by CellTiter-Glo assay; assay type: functional, cell-based; details: BaF3, 72 h
BaF3 [3] = test: Antiproliferative activity against mouse BaF3 cells harboring EGFR Del19/T790M/C797S mutant assessed as inhibition of cell growth incubated for 72 hrs by CellTiter-Glo assay; assay type: functional, cell-based; details: BaF3, 72 h
[4] = Potency index, ratio of Brigatinib IC50 to test compound IC50 for antiproliferative activity against mouse BaF3 cells harboring EGFR Del19/T790M/C797S mutant assessed as inhibition of cell growth incubated for 72 hrs by CellTiter-Glo assay; assay type: functional
BaF3 [5] = test: Antiproliferative activity against mouse BaF3 cells harboring EML4-ALK assessed as inhibition of cell growth incubated for 72 hrs by CellTiter-Glo assay; assay type: functional, cell-based; details: BaF3, 72 h
[6] = Potency index, ratio of Brigatinib IC50 to test compound IC50 for antiproliferative activity against mouse BaF3 cells harboring EML4-ALK-L1196M mutant assessed as inhibition of cell growth incubated for 72 hrs by CellTiter-Glo assay; assay type: functional
BaF3 [7] = test: Antiproliferative activity against mouse BaF3 cells harboring wild-type EGFR assessed as inhibition of cell growth incubated for 72 hrs by CellTiter-Glo assay; assay type: functional, cell-based; details: BaF3, 72 h
[8] = Toxicity in female Sprague-Dawley rat assessed as animal death at 75 mg/kg, po administered for 14 days; assay type: organism-based; details: in vivo, 336 h, time 14 day
[9] = Toxicity in female Sprague-Dawley rat assessed as animal death at 200 mg/kg, po administered for 14 days; assay type: organism-based; details: in vivo, 336 h, time 14 day
[10] = AUC (0 to infinity) in male Sprague-Dawley rat plasma at 10 mg/kg, po measured upto 72 hrs; assay type: ADME, organism-based
BaF3 [11] = test: Antiproliferative activity against mouse BaF3 cells harbouring EML4-ALK-C1156Y mutant assessed as inhibition of cell growth incubated for 72 hrs by CellTiter-Glo Luminescent Cell Viability Assay; assay type: functional, cell-based; details: BaF3, 72 h
[12] = Cmax in male Sprague-Dawley rat plasma at 10 mg/kg, po measured upto 72 hrs; assay type: ADME, organism-based
[13] = Toxicity in female Sprague-Dawley rat assessed as animal death at 125 mg/kg, po administered for 14 days; assay type: organism-based; details: in vivo, 336 h, time 14 day
[14] = Toxicity in Sprague-Dawley rat assessed as maximum tolerated dose administered as single po dose measured for 14 days; assay type: organism-based; details: in vivo, time 14 day
[15] = Tmax in male Sprague-Dawley rat plasma at 10 mg/kg, po measured upto 72 hrs; assay type: ADME, organism-based
NCI-H3122 = test: Antiproliferative activity against human NCI-H3122 cells harbouring EML4-ALK assessed as inhibition of cell growth incubated for 72 hrs by CellTiter-Glo Luminescent Cell Viability Assay; assay type: functional, cell-based; details: NCI-H3122, 72 h
[16] = Toxicity in male Sprague-Dawley rat assessed as animal death at 200 mg/kg, po administered for 14 days; assay type: organism-based; details: in vivo, 336 h, time 14 day
[17] = Toxicity in Sprague-Dawley rat blood assessed as adverse effect at 17.5 mg/kg, po administered once daily for 7 days; assay type: organism-based; details: in vivo, 168 h, time 7 day
[18] = Toxicity in male Sprague-Dawley rat assessed as animal death at 75 mg/kg, po administered for 14 days; assay type: organism-based; details: in vivo, 336 h, time 14 day
[19] = Toxicity in male Sprague-Dawley rat assessed as animal death at 125 mg/kg, po administered for 14 days; assay type: organism-based; details: in vivo, 336 h, time 14 day
BaF3 [20] = test: Antitumor activity against mouse BaF3 cells harbouring EML-4-ALK-L1196M mutant allografted in female BALB/c nude mouse assessed as tumor growth inhibition at 37 mg/kg, po administered once daily for 11 days by vernier caliper based analysis relative to control; assay type: functional; details: BaF3, 264 h, time 11 day, read-out: TGI
[21] = Half life in male Sprague-Dawley rat plasma at 10 mg/kg, po measured upto 72 hrs; assay type: ADME, organism-based
[22] = MRT (0 to infinity) in male Sprague-Dawley rat plasma at 10 mg/kg, po measured upto 72 hrs; assay type: ADME, organism-based
A-431 = test: Antiproliferative activity against human A-431 cells harbouring wild-type EGFR assessed as inhibition of cell growth incubated for 72 hrs by CellTiter-Glo Luminescent Cell Viability Assay; assay type: functional, cell-based; details: A-431, 72 h
PC-9 = test: Antiproliferative activity against human PC-9 cells harbouring EGFR del19/T790M/C797S mutant assessed as inhibition of cell growth incubated for 72 hrs by CellTiter-Glo Luminescent Cell Viability Assay; assay type: functional, cell-based; details: PC-9, 72 h
[23] = Antiproliferative activity against human NCI-H1975 cells harbouring EGFR del19/T790M/C797S mutant assessed as inhibition of cell growth incubated for 72 hrs by CellTiter-Glo Luminescent Cell Viability Assay; assay type: functional, cell-based; details: NCI-H1975, 72 h
BaF3 [24] = test: Antitumor activity against mouse BaF3 cells harbouring EML-4-ALK-L1196M mutant allografted in female BALB/c nude mouse assessed as tumor growth inhibition at 46 mg/kg, po administered once daily for 11 days by vernier caliper based analysis relative to control; assay type: functional; details: BaF3, 264 h, time 11 day, read-out: TGI
[25] = Antitumor activity against patient derived LU2445 lung cancer cells harbouring EML4-ALK model assessed as tumor growth inhibition po dose administered for 25 days by vernier caliper based analysis relative to control; assay type: functional, Homo sapiens; details: time 25 day
BaF3 [26] = test: Antitumor activity against mouse BaF3 cells harbouring EML-4-ALK-L1196M mutant allografted in female BALB/c nude mouse assessed as tumor growth inhibition at 100 mg/kg, po administered once daily for 11 days by vernier caliper based analysis relative to control; assay type: functional, organism-based; details: time 11.0 day
BaF3 [27] = test: Antitumor activity against mouse BaF3 cells harbouring EML-4-ALK-L1196M mutant allografted in female BALB/c nude mouse assessed as tumor growth inhibition at 25 mg/kg, po administered once daily for 11 days by vernier caliper based analysis relative to control; assay type: functional; details: BaF3, 264 h, time 11 day, read-out: TGI

Structure (SMILES): C[C@H]1Oc2cc(cnc2N)-c2c(nn(C)c2C#N)CN(C)C(=O)c2ccc(F)cc21 [LORLATINIB]
- inhibition in vivo at 20 mg/kg (BaF3 [1]): 129%

Structure (SMILES): COc1cc(N2CCC(N3CCN(C)CC3)CC2)c(C)cc1Nc1ncc(Cl)c(Nc2ccc(C)cc2P(C)(C)=O)n1
- IC50 (BaF3 [2]): 29 nM
- IC50 (BaF3 [3]): 22 nM
- Ratio [4]: 8
- IC50 (BaF3 [5]): 14 nM
- Ratio [6]: 8
- IC50 (BaF3 [7]): 690 nM

Structure (SMILES): COc1cc(N2CCC(N3CCN(C)CC3)CC2)ccc1Nc1ncc(Cl)c(Nc2ccccc2P(C)(C)=O)n1 [BRIGATINIB]
- Activity [8]: Toxic
- Activity [9]: Toxic
- AUC(0-inf) [10]: 21600 ng·h/mL
- IC50 (BaF3 [11]): 190 nM
- IC50 (BaF3 [2]): 10 nM
- Cmax [12]: 1930 ng/mL
- Activity [13]: Toxic
- IC50 (BaF3 [3]): 180 nM
- MTD at 336 h [14]: 75 mg/kg
- Tmax [15]: 3 h
- IC50 (NCI-H3122): 14 nM
- Activity [16]: Toxic
- IC50 (BaF3 [5]): 4 nM
- Activity [17]: Toxic
- Activity [18]: Toxic
- Activity [19]: Toxic
- IC50 (BaF3 [7]): 1650 nM
- inhibition in vivo at 37 mg/kg (BaF3 [20]): 94.8%
- half-life [21]: 18.6 h
- MRT inf [22]: 9.7 h

Structure (SMILES): COc1cc(N2CCC(N3CCN(C)CC3)CC2)c(C)cc1Nc1ncc(Br)c(Nc2ccc(Cl)cc2P(C)(C)=O)n1
- IC50 (BaF3 [2]): 25 nM
- IC50 (BaF3 [3]): 5 nM
- IC50 (BaF3 [5]): 12 nM
- IC50 (BaF3 [7]): 1030 nM

Structure (SMILES): C=CC(=O)Nc1cc(Nc2nccc(-c3cn(C)c4ccccc34)n2)c(OC)cc1N(C)CCN(C)C [OSIMERTINIB]
- IC50 (BaF3 [3]): 790 nM
- IC50 (PC-9): 2850 nM
- IC50 [23]: 3360 nM
- IC50 (BaF3 [7]): 75 nM

Structure (SMILES): C[C@@H]1CN(C(=O)c2ccc(NC(=O)c3cc(O[C@H](C)c4c(Cl)ccc(F)c4Cl)c(N)nn3)cc2)C[C@H](C)N1 [ENSARTINIB]
- inhibition in vivo at 46 mg/kg (BaF3 [24]): -32.4%

Structure (SMILES): CCc1cc2c(cc1N1CCC(N3CCOCC3)CC1)C(C)(C)c1[nH]c3cc(C#N)ccc3c1C2=O [ALECTINIB]
- inhibition in vivo at 20 mg/kg (BaF3 [1]): 87.4%

Structure (SMILES): Cc1cc(Nc2ncc(Cl)c(Nc3ccccc3S(=O)(=O)C(C)C)n2)c(OC(C)C)cc1C1CCNCC1 [CERITINIB]
- inhibition in vivo at 25 mg/kg (BaF3 [27]): -3.8%

The next lines start with results.

- IC50 (BaF3 [2]): 18 nM
- IC50 (BaF3 [3]): 26 nM
- IC50 (BaF3 [5]): 7 nM
- IC50 (BaF3 [7]): 820 nM
Structure (SMILES): COc1cc(N2CCC(N3CCN(C)CC3)CC2)c(C)cc1Nc1ncc(Cl)c(Nc2ccccc2P(C)(C)=O)n1
- Ratio [4]: 7

- IC50 (BaF3 [2]): 16 nM
- IC50 (BaF3 [3]): 190 nM
- IC50 (BaF3 [5]): 7 nM
- IC50 (BaF3 [7]): 1780 nM
Structure (SMILES): COc1cc(N2CCC(N3CCN(C)CC3)CC2)ccc1Nc1ncc(Cl)c(Nc2ccc(C)cc2P(C)(C)=O)n1

- IC50 (BaF3 [2]): 13 nM
- IC50 (BaF3 [3]): 19 nM
- IC50 (BaF3 [5]): 7 nM
- IC50 (BaF3 [7]): 600 nM
Structure (SMILES): COc1cc(N2CCC(N3CCN(C)CC3)CC2)c(Cl)cc1Nc1ncc(Br)c(Nc2ccc(C)cc2P(C)(C)=O)n1

- IC50 (A-431): 650 nM
- IC50 (PC-9): 9510 nM
Structure (SMILES): C#Cc1cccc(Nc2ncnc3cc(OCCOC)c(OCCOC)cc23)c1 [ERLOTINIB]
- IC50 [23]: 4930 nM

- IC50 (BaF3 [2]): 160 nM
- IC50 (NCI-H3122): 120 nM
- IC50 (BaF3 [5]): 20 nM
Structure (SMILES): C[C@@H](Oc1cc(-c2cnn(C3CCNCC3)c2)cnc1N)c1c(Cl)ccc(F)c1Cl [CRIZOTINIB]
- TGI [25]: 18%
- TGI (BaF3 [26]): No effect

- IC50 (BaF3 [2]): 17 nM
- IC50 (BaF3 [3]): 19 nM
- IC50 (BaF3 [5]): 9 nM
- IC50 (BaF3 [7]): 1080 nM
Structure (SMILES): COc1cc(N2CCC(N3CCN(C)CC3)CC2)c(C)cc1Nc1ncc(Br)c(Nc2ccc(F)cc2P(C)(C)=O)n1

Reference: ChEMBL document CHEMBL6114963, “Discovery and preclinical evaluations of drug candidate DA-0157 capable of overcoming EGFR drug-resistant mutation C797S and EGFR/ALK co-mutations” (Eur J Med Chem, 2025)
